Read-outs that look alike come from different tables or passages of the source.
Key:
[1] = test system: SQR (SDHC / altC) of IPO323 pTet::SDHC3 transformant, induced; test: Succinate-quinone (SQR) SDHI sensitivity assay on purified mitochondria, IPO323 pTet::SDHC3 induced; assay type: biochemical, Zymoseptoria tritici; settings: IPO323 pTet::SDHC3 transformant grown in the absence of doxycycline; mean of three ± SD
Method in brief: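 Succinate:ubiquinone/DCPIP reductase inhibition measured on purified mitochondria from Zymoseptoria tritici strains carrying either a single C-subunit gene (ZtSDHC1, ZtSDHC1_A84I or ZtSDHC3) or both ZtSDHC1 and ZtSDHC3; pTet::SDHC3 transformant tested under repressed and induced conditions.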

[2] = test system: Zymoseptoria tritici progeny isolates; assay type: cell-based; settings: for phenotype flag S (sensitive): 1 = sensitive; for Phenotype sensitive (S) flag: fluopyram 10 mg.L^-1 agar, 1 in S column; for phenotype flag, sensitive (S): growth on fluopyram 10 mg.L^-1 agar; for phenotype flag, sensitive (S) / Phenotyping Growth Fluopyram 10ppm Sensitive: 1 = scored sensitive; for Phenotype scored sensitive (S): agar growth on fluopyram 10 mg.L^-1, 1 = scored in this class

O=C(NCCc1ncc(C(F)(F)F)cc1Cl)c1ccccc1C(F)(F)F [Fluopyram]
IC50 [1]: 548 ± 68.8 nM
phenotype flag S (sensitive) ([2]; progeny isolate 25, cross IPO323XD024): 1
phenotype flag S (sensitive) ([2]; progeny isolate 27, cross IPO323XD024): 1
phenotype flag S (sensitive) ([2]; progeny isolate 28, cross IPO323XD024): 1
phenotype flag S (sensitive) ([2]; progeny isolate 31, cross IPO323XD024): 1
phenotype flag S (sensitive) ([2]; progeny isolate 32, cross IPO323XD024): 1
phenotype flag S (sensitive) ([2]; progeny isolate 34, cross IPO323XD024): 1
phenotype flag S (sensitive) ([2]; progeny isolate 37, cross IPO323XD024): 1
phenotype flag S (sensitive) ([2]; progeny isolate 39, cross IPO323XD024): 1
phenotype flag S (sensitive) ([2]; progeny isolate 40, cross IPO323XD024): 1
phenotype flag S (sensitive) ([2]; progeny isolate 43, cross IPO323XD024): 1
phenotype flag S (sensitive) ([2]; progeny isolate 46, cross IPO323XD024): 1
phenotype flag S (sensitive) ([2]; progeny isolate 49, cross IPO323XD024): 1
phenotype flag S (sensitive) ([2]; progeny isolate 50, cross IPO323XD024): 1
phenotype flag S (sensitive) ([2]; progeny isolate 51, cross IPO323XD024): 1
phenotype flag S (sensitive) ([2]; progeny isolate 53, cross IPO323XD024): 1
phenotype flag S (sensitive) ([2]; progeny isolate 54, cross IPO323XD024): 1
phenotype flag S (sensitive) ([2]; progeny isolate 55, cross IPO323XD024): 1
phenotype flag S (sensitive) ([2]; progeny isolate 56, cross IPO323XD024): 1
phenotype flag S (sensitive) ([2]; progeny isolate 57, cross IPO323XD024): 1
phenotype flag S (sensitive) ([2]; progeny isolate 59, cross IPO323XD024): 1
phenotype flag S (sensitive) ([2]; progeny isolate 60, cross IPO323XD024): 1
phenotype flag S (sensitive) ([2]; progeny isolate 62, cross IPO323XD024): 1
phenotype flag S (sensitive) ([2]; progeny isolate 63, cross IPO323XD024): 1
phenotype flag S (sensitive) ([2]; progeny isolate 65, cross IPO323XD024): 1
phenotype scored sensitive (S), flag 1 ([2]; progeny isolate 67, cross IPO323XD024, fluopyram 10 mg.L^-1 agar): 1
phenotype scored sensitive (S), flag 1 ([2]; progeny isolate 71, cross IPO323XD024, fluopyram 10 mg.L^-1 agar): 1
phenotype scored sensitive (S), flag 1 ([2]; progeny isolate 72, cross IPO323XD024, fluopyram 10 mg.L^-1 agar): 1
phenotype scored sensitive (S), flag 1 ([2]; progeny isolate 75, cross IPO323XD024, fluopyram 10 mg.L^-1 agar): 1
phenotype scored sensitive (S), flag 1 ([2]; progeny isolate 77, cross IPO323XD024, fluopyram 10 mg.L^-1 agar): 1
phenotype scored sensitive (S), flag 1 ([2]; progeny isolate 78, cross IPO323XD024, fluopyram 10 mg.L^-1 agar): 1
phenotype scored sensitive (S), flag 1 ([2]; progeny isolate 82, cross IPO323XD024, fluopyram 10 mg.L^-1 agar): 1
phenotype scored sensitive (S), flag 1 ([2]; progeny isolate 83, cross IPO323XD024, fluopyram 10 mg.L^-1 agar): 1
phenotype scored sensitive (S), flag 1 ([2]; progeny isolate 84, cross IPO323XD024, fluopyram 10 mg.L^-1 agar): 1
phenotype scored sensitive (S), flag 1 ([2]; progeny isolate 88, cross IPO323XD024, fluopyram 10 mg.L^-1 agar): 1
phenotype scored sensitive (S), flag 1 ([2]; progeny isolate 89, cross IPO323XD024, fluopyram 10 mg.L^-1 agar): 1
phenotype scored sensitive (S), flag 1 ([2]; progeny isolate 90, cross IPO323XD024, fluopyram 10 mg.L^-1 agar): 1
phenotype scored sensitive (S), flag 1 ([2]; progeny isolate 91, cross IPO323XD024, fluopyram 10 mg.L^-1 agar): 1
phenotype scored sensitive (S), flag 1 ([2]; progeny isolate 92, cross IPO323XD024, fluopyram 10 mg.L^-1 agar): 1
phenotype scored sensitive (S), flag 1 ([2]; progeny isolate 102, cross IPO323XD024, fluopyram 10 mg.L^-1 agar): 1
phenotype scored sensitive (S), flag 1 ([2]; progeny isolate 103, cross IPO323XD024, fluopyram 10 mg.L^-1 agar): 1
phenotype scored sensitive (S), flag 1 ([2]; progeny isolate 106, cross IPO323XD024, fluopyram 10 mg.L^-1 agar): 1
phenotype scored sensitive (S), flag 1 ([2]; progeny isolate 107, cross IPO323XD024, fluopyram 10 mg.L^-1 agar): 1
Phenotype sensitive (S) flag ([2]; progeny isolate 150 of cross IPO323XD024): 1
Phenotype sensitive (S) flag ([2]; progeny isolate 151 of cross IPO323XD024): 1
Phenotype sensitive (S) flag ([2]; progeny isolate 152 of cross IPO323XD024): 1
Phenotype sensitive (S) flag ([2]; progeny isolate 153 of cross IPO323XD024): 1
Phenotype sensitive (S) flag ([2]; progeny isolate 155 of cross IPO323XD024): 1
Phenotype sensitive (S) flag ([2]; progeny isolate 156 of cross IPO323XD024): 1
Phenotype sensitive (S) flag ([2]; progeny isolate 158 of cross IPO323XD024): 1
Phenotype sensitive (S) flag ([2]; progeny isolate 161 of cross IPO323XD024): 1
Phenotype sensitive (S) flag ([2]; progeny isolate 162 of cross IPO323XD024): 1
Phenotype sensitive (S) flag ([2]; progeny isolate 163 of cross IPO323XD024): 1
Phenotype sensitive (S) flag ([2]; progeny isolate 166 of cross IPO323XD024): 1
Phenotype sensitive (S) flag ([2]; progeny isolate 168 of cross IPO323XD024): 1
Phenotype sensitive (S) flag ([2]; progeny isolate 169 of cross IPO323XD024): 1
Phenotype sensitive (S) flag ([2]; progeny isolate 173 of cross IPO323XD024): 1
Phenotype sensitive (S) flag ([2]; progeny isolate 174 of cross IPO323XD024): 1
Phenotype sensitive (S) flag ([2]; progeny isolate 175 of cross IPO323XD024): 1
Phenotype sensitive (S) flag ([2]; progeny isolate 176 of cross IPO323XD024): 1
Phenotype sensitive (S) flag ([2]; progeny isolate 177 of cross IPO323XD024): 1
Phenotype sensitive (S) flag ([2]; progeny isolate 182 of cross IPO323XD024): 1
Phenotype sensitive (S) flag ([2]; progeny isolate 184 of cross IPO323XD024): 1
Phenotype sensitive (S) flag ([2]; progeny isolate 185 of cross IPO323XD024): 1
phenotype flag, sensitive (S) ([2]; progeny isolate 192, cross IPO323XD024): 1
phenotype flag, sensitive (S) ([2]; progeny isolate 193, cross IPO323XD024): 1
phenotype flag, sensitive (S) ([2]; progeny isolate 195, cross IPO323XD024): 1
phenotype flag, sensitive (S) ([2]; progeny isolate 197, cross IPO323XD024): 1
phenotype flag, sensitive (S) ([2]; progeny isolate 201, cross IPO323XD024): 1
phenotype flag, sensitive (S) ([2]; progeny isolate 207, cross IPO323XD024): 1
phenotype flag, sensitive (S) ([2]; progeny isolate 209, cross IPO323XD024): 1
phenotype flag, sensitive (S) ([2]; progeny isolate 210, cross IPO323XD024): 1
phenotype flag, sensitive (S) ([2]; progeny isolate 211, cross IPO323XD024): 1
phenotype flag, sensitive (S) ([2]; progeny isolate 215, cross IPO323XD024): 1
phenotype flag, sensitive (S) ([2]; progeny isolate 217, cross IPO323XD024): 1
phenotype flag, sensitive (S) ([2]; progeny isolate 218, cross IPO323XD024): 1
phenotype flag, sensitive (S) ([2]; progeny isolate 220, cross IPO323XD024): 1
phenotype flag, sensitive (S) ([2]; progeny isolate 221, cross IPO323XD024): 1
phenotype flag, sensitive (S) ([2]; progeny isolate 223, cross IPO323XD024): 1
phenotype flag, sensitive (S) ([2]; progeny isolate 224, cross IPO323XD024): 1
phenotype flag, sensitive (S) ([2]; progeny isolate 225, cross IPO323XD024): 1
phenotype flag, sensitive (S) ([2]; progeny isolate 227, cross IPO323XD024): 1
phenotype flag, sensitive (S) ([2]; progeny isolate 228, cross IPO323XD024): 1
phenotype flag, sensitive (S) ([2]; progeny isolate 229, cross IPO323XD024): 1
Phenotype scored sensitive (S) ([2]; progeny isolate 230 of cross IPO323 x D024): 1
Phenotype scored sensitive (S) ([2]; progeny isolate 235 of cross IPO323 x D024): 1
Phenotype scored sensitive (S) ([2]; progeny isolate 237 of cross IPO323 x D024): 1
Phenotype scored sensitive (S) ([2]; progeny isolate 238 of cross IPO323 x D024): 1
Phenotype scored sensitive (S) ([2]; progeny isolate 239 of cross IPO323 x D024): 1
Phenotyping Growth Fluopyram 10ppm Sensitive ([2]; progeny strain 3, cross IPO323XD024): 1
Phenotyping Growth Fluopyram 10ppm Sensitive ([2]; progeny strain 10, cross IPO323XD024): 1
Phenotyping Growth Fluopyram 10ppm Sensitive ([2]; progeny strain 13, cross IPO323XD024): 1
Phenotyping Growth Fluopyram 10ppm Sensitive ([2]; progeny strain 14, cross IPO323XD024): 1
Phenotyping Growth Fluopyram 10ppm Sensitive ([2]; progeny strain 16, cross IPO323XD024): 1
Phenotyping Growth Fluopyram 10ppm Sensitive ([2]; progeny strain 17, cross IPO323XD024): 1
Phenotyping Growth Fluopyram 10ppm Sensitive ([2]; progeny strain 18, cross IPO323XD024): 1
Phenotyping Growth Fluopyram 10ppm Sensitive ([2]; progeny strain 19, cross IPO323XD024): 1
Phenotyping Growth Fluopyram 10ppm Sensitive ([2]; progeny strain 20, cross IPO323XD024): 1
Phenotyping Growth Fluopyram 10ppm Sensitive ([2]; progeny strain 21, cross IPO323XD024): 1
Phenotyping Growth Fluopyram 10ppm Sensitive ([2]; progeny strain 23, cross IPO323XD024): 1
Phenotyping Growth Fluopyram 10ppm Sensitive ([2]; strain D024 (parent), cross IPO323XD024, 0 = not): 0
Phenotyping Growth Fluopyram 10ppm Sensitive ([2]; strain IPO323 (parent), cross IPO323XD024, 0 = not): 1

Source: article PMC6941823, “A dispensable paralog of succinate dehydrogenase subunit C mediates standing resistance towards a subclass of SDHI fungicides in Zymoseptoria tritici” (PLoS Pathogens, 2019)
